Usually Kd stands for the equilibrium constant for the complex coming apart.

From article PMC6696278 (International Journal of Molecular Sciences, 2019) come the findings set out here.

Holding throughout (assay type): binding
Experiment [1] has as its target T1, human galectin-4N (N-terminal domain) (Homo sapiens, UniProt P56470).
T1 construct: 4N (N-terminal domain) 4C (C-terminal domain); made in house
T1 sequence (P56470 19-150 limits assumed): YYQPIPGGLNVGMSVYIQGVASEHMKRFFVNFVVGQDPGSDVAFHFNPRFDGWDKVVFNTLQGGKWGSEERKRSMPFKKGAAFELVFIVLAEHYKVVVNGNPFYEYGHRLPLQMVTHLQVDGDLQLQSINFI
Description: competitive fluorescence polarization assay, galectin-4N. The following applies: Table 2; N-terminal domain; average and SEM; PBS. From the text:
(§1) Human galectin-1 [25], galectin-2 [26], galectin-3 [27], galectin-4N [19], galectin-4C [19], galectin-8N [28], galectin-8C [28], galectin-9N [29], and galectin-9C [30], were expressed and purified as described earlier. Human galectin-7 was expressed using a pET3c plasmid in E. coli BL21-star. The plasmid containing expression optimized DNA encoding the full human galectin-7 sequence (NCBI Reference Sequence: NP_002298.1) was obtained from GenScript (Piscataway, NJ, USA). Bacterial culture and induction, and galectin purification was essential as described for galectin-3 expressed with the same vector [27]; a typical yield was 1.5–2 mg/L culture. Lactose was removed by chromatography on a PD-10 column (Amersham Biosciences) with repeated ultrafiltration with Centriprep (Amicon).
(§2) Fluorescence polarization experiments were carried out either with a POLARStar plate reader and FLUOstar Galaxy software or with a PheraStarFS plate reader and PHERAstar Mars version 2.10 R3 software (BMG, Offenburg, Germany). The dissociation constant (Kd) values were determined in PBS as described earlier. Specific conditions for galectin-1, 2, 3, 4N, 4C, 8N, 8C, 9N, and 9C were kept as reported. Experiments were performed at room temperature with human galectin-7 at 5 µM and the fluorescent probe β-D-galactopyranosyl-(1–4)-2-acetamido-2-deoxy-β-d-glucopyranosyl-(1–3)-β-d-galactopyranosyl-(1–4)-(N1-fluorescein-5-yl-carbonylaminomethylcarbonyl)-β-D-glucopyranosylamine at 0.02 µM. All the compounds in Table 1 except 32 were dissolved in a neat DMSO at 100 mM and diluted in PBS to three to six different concentrations to be tested in duplicate.

In the next experiment the target is T2, human galectin-2 (Homo sapiens, UniProt P05162).
T2 construct: made in house
T2 sequence (P05162 1-132): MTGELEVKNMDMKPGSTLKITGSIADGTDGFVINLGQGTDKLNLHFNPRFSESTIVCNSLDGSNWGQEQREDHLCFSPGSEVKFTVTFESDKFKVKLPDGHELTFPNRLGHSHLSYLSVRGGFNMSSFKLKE
Description: competitive fluorescence polarization assay, galectin-2. The following applies: Table 2; average and SEM; PBS.
Source text: as §1, §2
(In general: Polarisation of emitted light reports the rotation of a fluorescent probe.)

In the next experiment the target is T3, human galectin-3 (Homo sapiens, UniProt P17931).
T3 construct: made in house; host or cells: vector pET3c (the same vector as galectin-7)
T3 sequence (P17931 whole entry): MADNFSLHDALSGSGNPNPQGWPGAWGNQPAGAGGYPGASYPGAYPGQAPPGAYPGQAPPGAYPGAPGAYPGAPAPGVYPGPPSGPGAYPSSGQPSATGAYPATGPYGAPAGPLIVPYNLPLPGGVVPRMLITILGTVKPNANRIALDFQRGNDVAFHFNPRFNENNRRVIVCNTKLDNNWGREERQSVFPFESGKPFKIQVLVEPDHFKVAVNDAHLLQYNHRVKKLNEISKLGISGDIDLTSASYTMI
Description: competitive fluorescence polarization assay, galectin-3. The following applies: Table 2; average and SEM; PBS.
Source text: as §1, with “Bacterial culture and induction, and galectin purification was essential as described for galectin-3 expressed with the same vector [27]; a typical yield was 1.5–2 mg/L culture.” left out
as §2

The target in experiment [2] is T4, human galectin-4C (C-terminal domain) (Homo sapiens, UniProt P56470).
T4 construct: 4N (N-terminal domain) 4C (C-terminal domain); made in house
T4 sequence (P56470 194-323 limits assumed): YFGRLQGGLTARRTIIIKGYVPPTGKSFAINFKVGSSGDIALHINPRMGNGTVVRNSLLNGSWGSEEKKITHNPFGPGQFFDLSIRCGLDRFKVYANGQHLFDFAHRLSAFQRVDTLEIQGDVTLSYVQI
In words: competitive fluorescence polarization assay, galectin-4C. The following applies: Table 2, average and SEM, PBS.
Source text: as §1, with “Bacterial culture and induction, and galectin purification was essential as described for galectin-3 expressed with the same vector [27]; a typical yield was 1.5–2 mg/L culture.” left out
as §2

Another experiment addresses T5, human galectin-7 (Homo sapiens, UniProt P47929).
T5 construct: made in house; host or cells: E. coli BL21-star, pET3c plasmid (DNA from GenScript)
Description: competitive fluorescence polarization assay, galectin-7. The following applies: Table 2; average and SEM; PBS, room temperature, galectin-7 at 5 µM, probe 0.02 µM.
Source text: as §1, §2

The target in experiment [3] is T6, human galectin-8C (C-terminal domain) (Homo sapiens, UniProt O00214).
T6 construct: 4N (N-terminal domain) 4C (C-terminal domain), 7, 8N, 8C, 9N, and 9C; made in house
T6 sequence (O00214 187-317 limits assumed): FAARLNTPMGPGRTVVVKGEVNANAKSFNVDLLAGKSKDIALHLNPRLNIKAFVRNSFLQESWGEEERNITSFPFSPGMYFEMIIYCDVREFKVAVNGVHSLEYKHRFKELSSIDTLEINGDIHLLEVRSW
In words: competitive fluorescence polarization assay, galectin-8C. The following applies: Table 2, average and SEM, PBS.
Source text: as §1, with “Bacterial culture and induction, and galectin purification was essential as described for galectin-3 expressed with the same vector [27]; a typical yield was 1.5–2 mg/L culture.” left out
as §2

The target in experiment [4] is T7, human galectin-8N (N-terminal domain) (Homo sapiens, UniProt O00214).
T7 construct: 4N (N-terminal domain) 4C (C-terminal domain), 7, 8N, 8C, 9N, and 9C; made in house
T7 sequence (O00214 19-152 limits assumed): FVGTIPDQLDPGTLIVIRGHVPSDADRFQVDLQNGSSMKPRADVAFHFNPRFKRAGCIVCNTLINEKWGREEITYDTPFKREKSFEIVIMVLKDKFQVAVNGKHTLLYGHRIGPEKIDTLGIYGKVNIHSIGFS
Description: competitive fluorescence polarization assay, galectin-8N. The following applies: Table 2, average and SEM, PBS.
Source text: as §1, with “Bacterial culture and induction, and galectin purification was essential as described for galectin-3 expressed with the same vector [27]; a typical yield was 1.5–2 mg/L culture.” left out
as §2

The target in experiment [5] is T8, human galectin-9N (N-terminal domain) (Homo sapiens, UniProt O00182).
T8 construct: 4N (N-terminal domain) 4C (C-terminal domain), 7, 8N, 8C, 9N, and 9C; made in house
T8 sequence (O00182 17-148 limits assumed): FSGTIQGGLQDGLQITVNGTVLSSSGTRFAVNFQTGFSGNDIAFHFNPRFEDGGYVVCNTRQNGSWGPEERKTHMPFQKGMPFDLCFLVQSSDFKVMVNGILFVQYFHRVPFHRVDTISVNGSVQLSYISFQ
Description: competitive fluorescence polarization assay, galectin-9N. The following applies: Table 2, average and SEM, PBS.
Source text: as §1, §2

The target in experiment [6] is T9, human galectin-9C (C-terminal domain) (Homo sapiens, UniProt O00182).
T9 construct: 4N (N-terminal domain) 4C (C-terminal domain), 7, 8N, 8C, 9N, and 9C; made in house
T9 sequence (O00182 227-355 limits assumed): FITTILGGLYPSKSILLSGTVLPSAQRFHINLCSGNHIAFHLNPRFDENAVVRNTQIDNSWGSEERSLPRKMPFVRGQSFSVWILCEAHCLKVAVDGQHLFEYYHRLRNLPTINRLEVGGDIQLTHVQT
Description: competitive fluorescence polarization assay, galectin-9C. The following applies: Table 2, average and SEM, PBS.
Source text: as §1, with “Bacterial culture and induction, and galectin purification was essential as described for galectin-3 expressed with the same vector [27]; a typical yield was 1.5–2 mg/L culture.” left out
as §2

In the next experiment the target is T10, human galectin-1 (Homo sapiens, UniProt P09382).
T10 construct: made in house
T10 sequence (P09382 whole entry): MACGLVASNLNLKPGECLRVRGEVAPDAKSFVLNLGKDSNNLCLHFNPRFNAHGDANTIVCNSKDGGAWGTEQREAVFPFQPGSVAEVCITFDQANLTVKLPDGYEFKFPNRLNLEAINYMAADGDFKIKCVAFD
Description: competitive fluorescence polarization assay, galectin-1. The following applies: Table 2; average and SEM of 4–8 single-triple point measurements; PBS.
Source text: as §1, with “Bacterial culture and induction, and galectin purification was essential as described for galectin-3 expressed with the same vector [27]; a typical yield was 1.5–2 mg/L culture.” left out
as §2

T5 sequence (P47929 whole entry): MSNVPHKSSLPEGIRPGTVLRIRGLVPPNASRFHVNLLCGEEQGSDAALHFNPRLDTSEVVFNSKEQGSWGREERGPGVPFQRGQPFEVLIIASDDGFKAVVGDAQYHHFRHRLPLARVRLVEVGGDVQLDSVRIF

With `COc1cccc(C(=O)NC[C@H]2[C@@H](O)[C@@H](CO)O[C@@H](OC)[C@@H]2O)c1` [Compound 7h, Methyl 3-Deoxy-3-C-(3-Methoxybenzamidomethyl)-β-D-Galactopyranoside], the Kd (in experiment [1]; at human galectin-2; on human galectin-3; in experiment [2]; on human galectin-7; in experiment [3]) was more than 4 mM in each case. Moreover, the dissociation constant (Kd) in experiment [4] is more than 4 mM; in [5], more than 4 mM; in experiment [6], more than 4 mM; on human galectin-1, 3.2 ± 0.5 mM.
